From ChEMBL document CHEMBL4602709 (ACS Med Chem Lett, 2020)

Columns and labels:
[1] = Metabolic stability in human liver microsomes assessed as half life at 3 uM measured up to 30 mins in presence of NADPH by […] analysis; assay type: ADME, Microsome
[2] = Metabolic stability in mouse liver microsomes assessed as half life at 3 uM measured up to 30 mins in presence of NADPH by […] analysis; assay type: ADME, Microsome
[3] = molecular target: Platelet-derived growth factor receptor alpha (Homo sapiens, UniProt P16234); test: Inhibition of PDGFRalpha (unknown origin) assessed as residual activity at 10 uM incubated for 5 mins in presence of [gamma-33ATP] by scintillation counting based radiometry assay relative to control
Chain of Platelet-derived growth factor receptor alpha (P16234 whole entry): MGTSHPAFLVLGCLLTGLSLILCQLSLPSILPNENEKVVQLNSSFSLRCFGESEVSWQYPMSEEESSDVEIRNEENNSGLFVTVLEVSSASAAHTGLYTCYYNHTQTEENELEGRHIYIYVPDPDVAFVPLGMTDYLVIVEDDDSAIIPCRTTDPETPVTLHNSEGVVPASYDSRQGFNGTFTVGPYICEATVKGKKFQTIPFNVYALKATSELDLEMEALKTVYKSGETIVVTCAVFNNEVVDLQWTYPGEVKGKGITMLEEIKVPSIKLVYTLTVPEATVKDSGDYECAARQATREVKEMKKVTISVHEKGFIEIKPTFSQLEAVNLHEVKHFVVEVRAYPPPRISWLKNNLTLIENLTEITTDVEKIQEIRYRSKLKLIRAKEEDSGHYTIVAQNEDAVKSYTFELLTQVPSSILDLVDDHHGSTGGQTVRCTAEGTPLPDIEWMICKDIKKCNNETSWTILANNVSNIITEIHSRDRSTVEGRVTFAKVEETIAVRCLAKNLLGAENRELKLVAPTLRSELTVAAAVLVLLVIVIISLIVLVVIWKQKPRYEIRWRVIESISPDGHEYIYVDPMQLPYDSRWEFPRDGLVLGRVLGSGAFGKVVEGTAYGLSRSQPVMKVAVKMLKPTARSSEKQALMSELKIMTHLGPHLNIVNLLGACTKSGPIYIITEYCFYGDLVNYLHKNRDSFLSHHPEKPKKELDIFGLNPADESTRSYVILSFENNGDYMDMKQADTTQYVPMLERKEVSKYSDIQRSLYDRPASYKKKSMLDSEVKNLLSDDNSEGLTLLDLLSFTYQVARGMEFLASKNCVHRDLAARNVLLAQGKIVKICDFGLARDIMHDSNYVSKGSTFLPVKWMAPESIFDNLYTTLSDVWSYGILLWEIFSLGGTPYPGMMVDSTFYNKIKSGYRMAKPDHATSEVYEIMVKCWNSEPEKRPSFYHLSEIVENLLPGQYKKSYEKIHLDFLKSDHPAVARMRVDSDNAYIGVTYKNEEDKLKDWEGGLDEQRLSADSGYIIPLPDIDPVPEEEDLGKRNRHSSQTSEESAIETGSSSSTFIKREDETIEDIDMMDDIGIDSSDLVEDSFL

[4] = molecular target: T1, Ephrin type-B receptor 2 (Homo sapiens) (UniProt P29323); test: Inhibition of EPHB2 (unknown origin) assessed as residual activity at 10 uM incubated for 5 mins in presence of [gamma-33ATP] by scintillation counting based radiometry assay relative to control
T1 sequence (whole entry): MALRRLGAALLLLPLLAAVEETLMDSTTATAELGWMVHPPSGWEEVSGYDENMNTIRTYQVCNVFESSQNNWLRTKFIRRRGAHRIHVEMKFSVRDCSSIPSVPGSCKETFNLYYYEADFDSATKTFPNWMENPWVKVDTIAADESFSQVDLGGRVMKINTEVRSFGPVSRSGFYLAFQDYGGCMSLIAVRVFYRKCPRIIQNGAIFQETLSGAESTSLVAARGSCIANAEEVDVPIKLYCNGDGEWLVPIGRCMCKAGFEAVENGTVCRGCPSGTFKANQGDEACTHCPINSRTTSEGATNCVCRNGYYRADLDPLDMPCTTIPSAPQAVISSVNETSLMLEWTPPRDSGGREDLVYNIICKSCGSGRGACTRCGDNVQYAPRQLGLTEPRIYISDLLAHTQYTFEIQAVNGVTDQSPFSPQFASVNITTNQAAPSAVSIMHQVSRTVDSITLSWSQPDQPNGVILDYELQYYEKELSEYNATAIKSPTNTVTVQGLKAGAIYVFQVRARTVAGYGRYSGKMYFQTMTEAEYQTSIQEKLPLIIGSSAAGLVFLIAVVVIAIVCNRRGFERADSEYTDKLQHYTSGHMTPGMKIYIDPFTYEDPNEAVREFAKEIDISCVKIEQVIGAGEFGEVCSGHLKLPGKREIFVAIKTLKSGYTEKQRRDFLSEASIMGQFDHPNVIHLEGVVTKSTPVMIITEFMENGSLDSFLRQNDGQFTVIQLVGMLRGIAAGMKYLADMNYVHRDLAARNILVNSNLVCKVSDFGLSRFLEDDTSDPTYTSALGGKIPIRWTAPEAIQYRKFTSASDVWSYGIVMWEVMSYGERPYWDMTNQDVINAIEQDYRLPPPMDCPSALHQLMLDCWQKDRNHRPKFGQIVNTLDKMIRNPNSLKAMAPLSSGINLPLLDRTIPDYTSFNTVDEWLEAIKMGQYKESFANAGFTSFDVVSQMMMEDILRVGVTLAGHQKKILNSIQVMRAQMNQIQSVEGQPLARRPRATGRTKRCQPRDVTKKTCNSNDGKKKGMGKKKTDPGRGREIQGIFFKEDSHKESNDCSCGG

[5] = molecular target: T2, Ephrin type-B receptor 3 (Homo sapiens) (UniProt P54753); test: Inhibition of EPHB3 (unknown origin) assessed as residual activity at 10 uM incubated for 5 mins in presence of [gamma-33ATP] by scintillation counting based radiometry assay relative to control
T2 sequence (whole entry): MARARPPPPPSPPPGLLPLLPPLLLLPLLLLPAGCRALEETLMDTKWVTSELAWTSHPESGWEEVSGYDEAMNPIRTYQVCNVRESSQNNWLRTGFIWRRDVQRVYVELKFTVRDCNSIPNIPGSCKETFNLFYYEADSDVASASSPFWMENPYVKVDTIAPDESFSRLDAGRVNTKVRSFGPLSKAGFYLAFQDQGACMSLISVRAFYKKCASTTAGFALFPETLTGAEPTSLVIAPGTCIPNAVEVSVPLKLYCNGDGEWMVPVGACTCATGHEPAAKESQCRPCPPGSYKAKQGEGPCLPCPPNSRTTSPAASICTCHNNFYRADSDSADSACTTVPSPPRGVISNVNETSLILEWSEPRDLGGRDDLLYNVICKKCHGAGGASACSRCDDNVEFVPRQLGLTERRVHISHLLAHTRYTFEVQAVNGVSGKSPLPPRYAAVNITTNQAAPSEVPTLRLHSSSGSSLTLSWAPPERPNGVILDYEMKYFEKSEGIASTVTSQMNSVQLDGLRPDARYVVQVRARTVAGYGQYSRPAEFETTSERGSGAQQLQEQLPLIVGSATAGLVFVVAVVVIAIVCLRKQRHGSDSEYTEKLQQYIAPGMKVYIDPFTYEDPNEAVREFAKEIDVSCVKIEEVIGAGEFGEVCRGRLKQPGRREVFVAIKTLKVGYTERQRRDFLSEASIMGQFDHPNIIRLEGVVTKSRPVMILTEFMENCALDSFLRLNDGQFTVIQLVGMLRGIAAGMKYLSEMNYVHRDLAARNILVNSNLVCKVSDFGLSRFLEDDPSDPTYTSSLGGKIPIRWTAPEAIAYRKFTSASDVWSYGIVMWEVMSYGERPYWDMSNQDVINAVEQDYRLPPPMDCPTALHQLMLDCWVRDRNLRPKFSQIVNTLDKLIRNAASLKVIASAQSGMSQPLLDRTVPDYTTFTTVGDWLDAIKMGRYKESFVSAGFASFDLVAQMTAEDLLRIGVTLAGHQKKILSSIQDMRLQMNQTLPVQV

[6] = molecular target: Tyrosine-protein kinase Lck (Homo sapiens, UniProt P06239); test: Inhibition of LCK (unknown origin) assessed as residual activity at 10 uM incubated for 5 mins in presence of [gamma-33ATP] by scintillation counting based radiometry assay relative to control
Chain of Tyrosine-protein kinase Lck (P06239 2-509 limits assumed): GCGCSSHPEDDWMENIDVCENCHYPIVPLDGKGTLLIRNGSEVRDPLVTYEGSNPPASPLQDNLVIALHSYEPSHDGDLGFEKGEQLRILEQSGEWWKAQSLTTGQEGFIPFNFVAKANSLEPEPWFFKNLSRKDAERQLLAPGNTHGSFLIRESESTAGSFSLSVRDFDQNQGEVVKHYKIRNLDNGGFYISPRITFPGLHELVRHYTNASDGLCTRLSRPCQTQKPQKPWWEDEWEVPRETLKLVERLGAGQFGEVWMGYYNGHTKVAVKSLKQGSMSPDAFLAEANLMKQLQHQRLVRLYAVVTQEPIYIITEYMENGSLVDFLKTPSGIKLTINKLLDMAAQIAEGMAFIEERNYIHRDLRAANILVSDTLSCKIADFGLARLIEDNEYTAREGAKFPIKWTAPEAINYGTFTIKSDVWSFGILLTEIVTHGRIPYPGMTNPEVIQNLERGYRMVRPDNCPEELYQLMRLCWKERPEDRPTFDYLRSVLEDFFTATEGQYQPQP

[7] = molecular target: Serine/threonine-protein kinase Nek6 (Homo sapiens, UniProt Q9HC98); test: Inhibition of NEK6 (unknown origin) assessed as residual activity at 10 uM incubated for 5 mins in presence of [gamma-33ATP] by scintillation counting based radiometry assay relative to control
Chain of Serine/threonine-protein kinase Nek6 (Q9HC98 whole entry): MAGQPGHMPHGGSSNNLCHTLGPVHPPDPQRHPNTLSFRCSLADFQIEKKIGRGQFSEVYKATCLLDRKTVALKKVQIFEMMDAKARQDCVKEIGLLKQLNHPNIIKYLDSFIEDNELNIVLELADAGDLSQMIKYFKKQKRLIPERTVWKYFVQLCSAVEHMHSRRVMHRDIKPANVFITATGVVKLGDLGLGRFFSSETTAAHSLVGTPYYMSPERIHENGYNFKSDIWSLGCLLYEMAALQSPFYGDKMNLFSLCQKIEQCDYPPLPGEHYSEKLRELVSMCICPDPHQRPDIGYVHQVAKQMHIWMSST

Homo sapiens = species: Homo sapiens; test: Inhibition of VEGFR (unknown origin) assessed as residual activity at 10 uM incubated for 5 mins in presence of [gamma-33ATP] by scintillation counting based radiometry assay relative to control

half-life at 3 µM [1] [min]	half-life at 3 µM [2] [min]	Activity [3] [%]	Activity [4] [%]	Activity [5] [%]	Activity [6] [%]	Activity [7] [%]	Activity (Homo sapiens) [%]	SMILES
7.89	7.89	56	25	52	37	97	75	Cc1cn(-c2cc(NC(=O)c3ccc(C)c(Nc4nccc(-c5cccnc5)n4)c3)cc(C(F)(F)F)c2)cn1 [NILOTINIB]
39.8	16.8	16	1	5	17	9	13	Cc1ccc(C(=O)Nc2ccc(CN3Cc4cn[nH]c4C3)c(Cl)c2)cc1C#Cc1cnc2cccnn12
